In patent US20060167076A1, “Acutumine and acutumine compounds synthesis and use” (priority 2002, published 2006):

Key:
[1] = test system: scopolamine-induced memory impairments; assay: Morris water maze test with scopolamine as amnesic agent; assay type: in vivo, mouse; conditions: 60 mg/kg p.o.; scopolamine 5 mg/kg i.p.; control animals 43 seconds
Source text: The anti-amnesic effects of the compounds of the present invention have been evaluated using the Morris water maze test (Morris et al., Nature, 1986, 319, 774-776) in the mouse and scopolamine as amnesic agent. Kumming strain mice (18-24 g, Shanghai Experimental Animal Centre) of either sex were used. Mice were placed on the water maze (80×50×20 cm) and trained to find the platform. Following the period of one day's habituation, each mouse received 3 daily training sessions for seven days. Mice were trained to a criterion of finding the platform within 20 seconds and with <2 errors of entering a dead-end. Once a mouse met the criterion, training was reduced to one daily session until all mice met the criterion. Trained mice were randomly assigned to sub-groups. Compounds under study were dissolved in distilled water and administered by the oral route 40 minutes before behavioural testing. Scopolamine (5 mg/kg, i.p.) was injected 30 minutes before the test. The number of errors and the time for reaching the platform were recorded. Data were expressed as means±s.e.m. Statistical analysis was performed using ANOVA followed by Duncan's multiple-range test.

[2] = test system: animal experimental models; assay: Mnemocognition in animal experimental models (unspecified); assay type: in vivo
Wistar rat [3] = assay: Object recognition in the Wistar rat; assay type: in vivo; conditions: 10 mg/kg; second session 24 hours later
Source text: The object recognition test in the Wistar rat was initially developed by ENNACEUR and DELACOUR (Behav. Brain Res., 1988, 31, 47-59). The test is based on the spontaneous exploratory activity of the animal and has the characteristics of episodic memory in humans. This memory test is sensitive to ageing (SCALI et al., Eur. J. Pharmacol., 1997, 325, 173-180) and to cholinergic dysfunctions (BARTOLINI et al., Pharm. Biochem. Behav. 1996, 53(2), 277-283) and is based on the differences in the exploration of 2 objects of fairly similar shape—one familiar, the other new. Prior to the test, the animals are habituated to the environment (an enclosure without an object). In the course of a first session, the rats are placed (3 minutes) in the enclosure, in which there are 2 identical objects. The duration of exploration is measured for each object. In the course of the second session (3 minutes), 24 hours later, 1 of the 2 objects is replaced by a new object. The duration of exploration is measured for each object. The assessment criterion is the difference, Delta, expressed in seconds, between the exploration times for the new object and for the familiar object in the course of the second session.

Wistar rat [4] = assay: Social recognition in the Wistar rat; assay type: in vivo; conditions: 20 mg/kg; second encounter after 2 hours
Source text: Initially described in 1982 by THOR and HOLLOWAY (J. Comp. Physiol., 1982, 29 1000-1006), the social recognition test has subsequently been proposed by various authors (DANTZER et al., Psychopharmacology, 1987, 91, 363-368; PERIO et al., Psychopharmacology, 1989, 97, 262-268) for studying the mnemocognitive effects of new compounds. The test is based on the natural expression of the olfactory memory of the rat and its natural tendency to forget and allows evaluation of memorisation, by recognition of a young congeneric animal, by an adult rat. A young rat (21 days), taken at random, is placed for 5 minutes in the cage housing an adult rat. With the aid of a video device, the experimenter observes the social recognition behaviour of the adult rat and measures its overall duration. The young rat is then removed from the adult rat's cage and is placed in its own cage until the second introduction. The adult rat is given the compound under test and, after 2 hours, is again brought into the presence (5 minutes) of the young rat. The social recognition behaviour is then observed again and its duration measured. The assessment criterion is the difference (T2−T1), expressed in seconds, between the “recognition” times of the 2 encounters.

## CCC(=O)OC1C(OC)=CC(=O)[C@]12[C@@H](Cl)CC13C(OC)=C(OC)C(=O)CC12CCN3C (stereo partly drawn) [Example 1, Spiro[(4S,5S)-4-(ethoxycarbonyl)-3-methoxy-2-cyclopenten-1-one-5:3(2S)-2-chloro-3aS,7aS-((2,3)-1-methylpyrrolidine)-6,7-dimethoxy-1,2,3,3a,4,7a-hexahydro-5H-inden-5-one]]
[1]
  time for reaching the platform: ≤ 18 s

## COC1=CC(=O)C2(C1O)[C@@H](Cl)CC13C(OC)=C(OC)C(=O)CC21CCN3C (stereo partly shown) [acutumine]
[2]
  mnemocognition-facilitating properties: mnemocognition-facilitating properties

## Spiro[(4S,5S)-4-hydroxy-3-methoxy-2-cyclopenten-1-one-5:3(2S)-2-chloro-3aS,7aS-((2,3)-1-methylpyrrolidine)-6,7-dimethoxy-1,2,3,3a,4,7a-hexahydro-5H-inden-5-one oxime] [Example 4]
Wistar rat [3]
  difference, Delta, between exploration times for the new and the familiar object: 8 s
Wistar rat [4]
  difference (T2−T1) between recognition times of the 2 encounters: -45 s
